Data taken from patent US10329249B1, “Sulindac derivatives” (KING SAUD UNIVERSITY, priority 2018, dated 2019).
Marks after values point to notes of the source that are not given here.

Legend:
[1] = tested on: carrageenan-induced paw edema; test: Carrageenan induced paw edema; type: in vivo, rats; settings: Sulindac 100 mg/kg oral; for Paw volume before carrageenan: baseline, groups Compound 8 150 mg/kg, in mL (unit assumed)
Procedure: (§1) All animal experiments used healthy male albino rats (200 g-220 g) and mice. The animals were kept in standard plastic animal cages in groups of six animals each with a 12 hour light and dark cycle. The animals were acclimatized to laboratory conditions for a week prior to the experiments.
In a Carrageenan induced paw edema in rats study, Carrageenan sodium salt (0.05 mL of 1% BDH) was injected into the right hind foot of each rat (male or female, 200-220 g) under the plantar aponeurosis. The test group of was treated orally with a Sulindac derivative compound 1 hour before carrageenan injection. At the same time, the control group was given 5 mL/kg of normal saline and the reference group was given 100 mg/kg of an aqueous solution of sulindac. […] Inhibitory activity was calculated using the following:
[formula] where “B” is the mean paw volume of control rats after carrageenan injection, “Y” is the mean paw volume of control rats before the carrageenan injection, “X” is the mean paw volume of treated rats before carrageenan injection, and “A” is the mean paw volume of treated rats after the carrageenan injection.

[2] = tested on: acute nociception (tail flick); test: Analgesic study by tail flick method; type: in vivo, mice; settings: Sulindac 100 mg/kg oral; for % Inhibition 30 min / Reaction Time 30 min / % Inhibition 60 min / Reaction Time 60 min / % Inhibition 120 min / Reaction Time 120 min: Compound 8 150 mg/kg; for Reaction Time 30 min / Reaction Time 60 min / Reaction Time 120 min / Reaction Time, Pre-drug: mean ±SEM; for Reaction Time, Pre-drug: pre-drug baseline, groups Compound 8 150 mg/kg
Procedure: as §1
In an analgesic study by tail flick method, acute nociception was assessed using a tail flick apparatus (Tail Flick model DS 20 Sorrel Apelex, France). Briefly, each animal was placed in a restrainer 2 min. before treatment and baseline reaction time was measured by focusing an intensity controlled beam of light on the distal one-third portion of the animal's tail. […] A 10 sec cut off time was used in order to prevent tissue damage.

[3] = tested on: gastric lesions induced by indomethacin; test: Gastric lesions induced by indomethacin; type: in vivo, rats; settings: for Ulcer Index: rats given indomethacin 30 mg/kg oral, Sulindac 100 mg/kg, Compound 8 150 mg/kg half an hour before, mean ±SEM
Procedure: as §1
In a study of the effect of sulindac derivatives on gastric lesions induced by indomethacin, a suspension of indomethacin in 1.0% carboxymethylcellulose (CMC) in water (6 mg/mL) at a dose of (30 mg/kg) body weight was administered orally to rats. Control rats were treated with the vehicle. Sulindac derivative Compound 8 was administered half an hour prior to indomethacin administration at a dose of 150 mg/kg.

[4] = tested on: non-protein sulfhydryls (NP-SH); test: Non-protein sulfhydryls in stomach tissue; type: in vivo, rats; settings: Sulindac 100, Compound 8 150, mean ±SEM
Procedure: […] non-protein sulfhydryls (NP-SH) were measured by homogenizing rat stomach tissues in ice cold 0.02 mmol/L ethylenediaminetetraacetic acid (EDTA). Aliquots of 5 mL of the homogenates were mixed in 15 mL test tube with 4 mL of distilled water and 1 mL of 50% trichloroacetic acid (TCA). The test tubes were shaken intermittently for 10 min. and centrifuged at 3000 rpm for 10 min. A total of 2 mL supernatant was mixed with 4 mL of […] tris buffer (pH 8.9). A total of 0.1 mL of 5,5-dithiobis(2-nitrobenzoic acid) ([…]) was added, and the sample was shaken. The absorbance was measured within 5 min. of addition of DTNB at 412 nm and compared to a reagent blank.

ethanol-induced ulcer = test: Ulcer study using 80% ethanol (gastric mucosal damage score); type: in vivo, rats; settings: sulindac 100 mg/kg; for Ulcer Index: mean ±SEM; for % Inhibition (ulcer index): Cmpd 8 150 mg/kg, versus 80% EtOH alone
Procedure: as §1
In an ulcer study of sulindac derivatives using 80% ethanol, the ethanol-induced ulcer model was used to study gastro-protective activity of sulindac derivative Compound 8. Rats were grouped into five groups (n=6). Group I received 80% ethanol only and served as an ulcer control. Group II received 80% ethanol and sulindac (100 mg/kg) orally. […] Animals in Group IV received sulindac (100 mg/kg body weight) without any ethanol. […] Animals of all Groups were sacrificed 1 hour later under anesthesia and their stomachs were quickly removed for further studies. The stomach was opened along the greater curvature, washed with distilled water and cleaned gently by dipping in saline. The mucosal damage was assessed according to the following scoring system: redness=0.5, spot ulcer=1.0, hemorrhagic streaks=1.5, ulcer>3 but<5=2.0, ulcers>5=3.0. The mean score of each treated group minus the mean score of the control group was taken as the severity index of gastric mucosal damage. Results were calculated by ANOVA followed by Dunnett's multiple comparison test and are summarized in Table 7, represent mean±SEM; ***=p<0.001 (n=6).

hot plate nociception = test: Analgesic activity by hot plate method; type: in vivo, mice; settings: Sulindac 100 mg/kg oral; for % Inhibition 30 min / Reaction Time 30 min / % Inhibition 60 min / Reaction Time 60 min / % Inhibition 120 min / Reaction Time 120 min: Compound 8 150 mg/kg; for Reaction Time 30 min / Reaction Time 60 min / Reaction Time 120 min / Reaction Time, Pre-drug: mean ±SEM; for Reaction Time, Pre-drug: pre-drug baseline, groups Compound 8 150 mg/kg
Procedure: as §1
In an analgesic activity by hot plate method study, animals were dropped gently on a hot plate maintained at […]. Reaction time was recorded as the interval extending from the instant the animal reached the hot plate until the moment the animal licked its forefeet or jumped off. […]

malondialdehyde (MDA) = test: Determination of malondialdehyde in stomach tissue; type: in vivo, rats; settings: Sulindac 100, Compound 8 150, mean ±SEM
Procedure: In a study for the determination of malondialdehyde, non-protein sulfhydryls, and total protein, stomach tissues were removed from rats, and each tissue was homogenized in 0.15M KCl to give a 10% w/v homogenate. Aliquots of homogenate (1 mL) were incubated at 37° C. for three hours in a metabolic shaker. Then 1 mL of 10% aqueous trichloroacetic acid was added to the homogenate and mixed. This suspension was then centrifuged at 4000 rpm for 10 min. […] The mixture was cooled and diluted with 1 mL of distilled water. The absorbance of the solution was then read at 535 nm. The content of malondialdehyde (MDA) (nmol/g) was then calculated by reference to a standard curve of MDA solution.

[5] = tested on: acetic acid induced writhing; test: Analgesic activity by acetic acid induced writhing; type: in vivo, mice; settings: Compound 8 150 mg/kg, Sulindac 100 mg/kg; for % Inhibition (writhing): versus acetic acid group; for Movements (writhing): counted for 20 minutes after i.p. acetic acid, mean ±SEM
Procedure: as §1
In an analgesic activity by writhing study, writhing was induced in mice by intraperitoneal administration of 0.1 mL of 1% acetic acid. The number of writhing movements was counted for 20 minutes. The writhing test was performed after the administration of the vehicle or sulindac derivative compound.

[6] = Compound 8 150 mg/kg, mean ±SEM
[7] = 5 hours, Compound 8 150 mg/kg, mean ±SEM
[8] = with 80% EtOH, Cmpd 8 150 mg/kg oral, sacrificed 1 hour later

CC1=C(CC(=O)O)c2cc(F)ccc2/C1=C\c1ccc([S+](C)[O-])cc1 (stereo not shown) [Sulindac]
% Inhibition of paw edema after 3 hours ([1]; Compound 8 150 mg/kg): 65.18% | Increased paw volume after 3 hours, Mean [1, 6]: 1.26 ± 0.03 | Increased paw volume after 3 hours, Net [1, 6]: 0.22 ± 0.01 | % Inhibition of paw edema after 5 hours ([1]; 5 hours, Compound 8 150 mg/kg): 65.02% | Increased paw volume after 5 hours, Mean [1, 7]: 1.25 ± 0.03 | Paw volume before carrageenan ([1]; mean ±SEM): 1.03 ± 0.03 | % Inhibition 30 min [2]: 13.79% | Reaction Time 30 min [2]: 5.50 ± 0.34 s | % Inhibition 60 min [2]: 82.75% | Reaction Time 60 min [2]: 8.83 ± 0.79 s | % Inhibition 120 min [2]: 127.58% | Reaction Time 120 min [2]: 11.00 ± 0.57 s | Reaction Time, Pre-drug [2]: 4.83 ± 0.40 s | Ulcer Index [3]: 32.00 ± 3.86 | NP-SH ([4]; drug alone, no ethanol): 7.00 ± 0.032 nmol/g | NP-SH ([4]; with 80% Ethanol 1 mL): 5.08 ± 0.28 nmol/g | Ulcer Index (ethanol-induced ulcer; drug alone, without ethanol, Compound 8 150 mg/kg oral): 1.33 ± 0.49 | Ulcer Index (ethanol-induced ulcer; [8]): 6.83 ± 0.40 | % Inhibition (ulcer index) (ethanol-induced ulcer; with 80% EtOH): 6.81% | % Inhibition 30 min (hot plate nociception): 41.30% | Reaction Time 30 min (hot plate nociception): 10.83 ± 0.47 s | % Inhibition 60 min (hot plate nociception): 54.34% | Reaction Time 60 min (hot plate nociception): 11.83 ± 0.47 s | % Inhibition 120 min (hot plate nociception): 86.95% | Reaction Time 120 min (hot plate nociception): 14.33 ± 0.42 s | Reaction Time, Pre-drug (hot plate nociception): 7.66 ± 0.33 s | MDA (malondialdehyde (MDA); drug alone, no ethanol): 1.31 ± 0.04 nmol/g | MDA (malondialdehyde (MDA); with 80% Ethanol 1 mL): 2.28 ± 0.11 nmol/g | % Inhibition (writhing) [5]: 74.01% | Movements (writhing) [5]: 8.83 ± 0.70

CC1=C(CC(=O)N/N=C\c2ccc(N(C)C)cc2)c2cc(F)ccc2/C1=C\c1ccc([S+](C)[O-])cc1 (stereo not shown) [Compound 8]
% Inhibition of paw edema after 3 hours ([1]; Compound 8 150 mg/kg): 50.52% | Increased paw volume after 3 hours, Mean [1, 6]: 1.34 ± 0.02 | Increased paw volume after 3 hours, Net [1, 6]: 0.31 ± 0.03 | % Inhibition of paw edema after 5 hours ([1]; 5 hours, Compound 8 150 mg/kg): 50.54% | Increased paw volume after 5 hours, Mean [1, 7]: 1.33 ± 0.01 | Increased paw volume after 5 hours, Net [1, 7]: 0.30 ± 0.02 | Paw volume before carrageenan ([1]; mean ±SEM): 1.02 ± 0.02 | % Inhibition 30 min [2]: 3.33% | Reaction Time 30 min [2]: 4.83 ± 0.30 s | % Inhibition 60 min [2]: 46.66% | Reaction Time 60 min [2]: 7.33 ± 0.42 s | % Inhibition 120 min [2]: 63.33% | Reaction Time 120 min [2]: 7.16 ± 0.30 s | Reaction Time, Pre-drug [2]: 5.00 ± 0.36 s | Ulcer Index [3]: 22.16 ± 1.10 | % Inhibition (ulcer index) ([3]; rats given indomethacin 30 mg/kg, Compound 8 150 mg/kg, versus indomethacin alone): 40.09% | NP-SH ([4]; drug alone, no ethanol): 7.52 ± 0.31 nmol/g | NP-SH ([4]; with 80% Ethanol 1 mL): 6.62 ± 0.26 nmol/g | Ulcer Index (ethanol-induced ulcer; [8]): 4.33 ± 0.4*** | % Inhibition (ulcer index) (ethanol-induced ulcer; with 80% EtOH): 40.90% | % Inhibition 30 min (hot plate nociception): 15% | Reaction Time 30 min (hot plate nociception): 7.66 ± 0.42 s | % Inhibition 60 min (hot plate nociception): 47.50% | Reaction Time 60 min (hot plate nociception): 9.83 ± 0.30 s | % Inhibition 120 min (hot plate nociception): 67.50% | Reaction Time 120 min (hot plate nociception): 11.16 ± 0.30 s | Reaction Time, Pre-drug (hot plate nociception): 6.66 ± 0.33 s | MDA (malondialdehyde (MDA); drug alone, no ethanol): 1.06 ± 0.02 nmol/g | MDA (malondialdehyde (MDA); with 80% Ethanol 1 mL): 1.59 ± 0.06 nmol/g | % Inhibition (writhing) [5]: 56.86% | Movements (writhing) [5]: 14.66 ± 0.95
